The results in this text go back to patent publication US20250000128A1, “SALTINESS ENHANCING COMPOSITION, AND COMPOSITION FOR ORAL USE AND METHOD OF ENHANCING SALTINESS THEREOF” (Nagase Viita Co., Ltd., priority 2021, published 2025).

The assay can be described thus: Sensory evaluation of saltiness enhancing effect in aqueous salt solution (Experiments 2 and 3). Further: key: A test sample for which the majority of the expert panelists evaluated as having a stronger saltiness than the control sample was determined as having a saltiness enhancing effect (Good); a sample for which they did not so was determined as having no saltiness enhancing effect (Bad); *2: Undetermined whether saltiness was enhanced or not due to strong bitterness. It counts as in vivo, human. The protocol: The preparation of 3″-α-GN prepared in Experiment 1, Sunphenon EGCg-OP (from Taiyo Kagaku Co., Ltd., epigallocatechin gallate (EGCg), 95.3% pure), naringin (from Sichuan Xinhua Health Biotechnology Co., Ltd., 98.2% pure) or Hayashibara Hesperidin S (from Hayashibara Co., Ltd., monoglucosyl hesperidin, 82.1% pure), and salt (from The Salt Industry Center of Japan, the purity of sodium chloride was 99% or higher) were dissolved in pure water to give concentrations as shown in Table 1 below for preparing aqueous solutions of a control sample and test samples 1-1 to 1-5. Then, 9 panelists competent in food sensory evaluation who had passed the five-taste test (hereinafter referred to as “expert panelists”) conducted sensory evaluation tests on the test samples. Specifically, each of the expert panelists held a room-temperature control sample and a room-temperature test sample in her/his mouth and evaluated whether the saltiness of the test sample was weaker, similar, or stronger than that of the control sample, and recorded the overall taste.
Control samples 2 and 3 and test samples 9 and 10 were prepared as in Experiment 2, except that the concentrations of 3″-α-GN and salt were changed as shown in Table 2 below. Sensory evaluation tests were then conducted as in Experiment 2 to evaluate the intensity of saltiness of the test samples including 3″-α-GN as compared with the control samples of the same salt concentrations.

The mark [1] stands for this setting: 5 ppm in water, salt 0.5 mass % (test samples 3, 6, 7).

In the case of “monoglucosyl hesperidin [reference compound]”, for the setting “4 ppm in water, salt 0.5 mass % (test sample 8)”, the Saltiness enhancing effect result was “Bad”.

`C[C@@H]1O[C@@H](O[C@H]2[C@H](Oc3cc(O)c4c(c3)O[C@H](c3ccc(O)cc3)CC4=O)O[C@H](CO)[C@@H](O)[C@@H]2O)[C@H](O)[C@H](O)[C@H]1O` [Naringin, naringin, reference compound]: the Saltiness enhancing effect result under setting [1] is on record as “Bad”.

With `CC1O[C@@H](OC2C(O[C@H]3OC(CO)[C@@H](O)C(O)C3O)[C@H](O)C(CO)O[C@H]2Oc2cc(O)c3c(c2)OC(c2ccc(O)cc2)CC3=O)C(O)C(O)[C@H]1O` (stereo partly drawn) [3″-α-GN, 3″-α-monoglucosyl naringin], the Saltiness enhancing effect result runs as follows: (0.1 ppm in water, salt 0.5 mass %, G/S 0.02×10^−3 (test sample 1 vs control sample 1)) “Good”; (1 ppm in water, salt 0.5 mass %, G/S 0.2×10^−3 (test sample 2)) “Good”; (1 ppm in water, salt 1 mass %, G/S 0.1×10^−3 (test sample 9 vs control sample 2)) “Good”; (1 ppm in water, salt 2 mass %, G/S 0.05×10^−3 (test sample 10 vs control sample 3)) “Good”; under setting [1], “Good”; (10 ppm in water, salt 0.5 mass %, G/S 2.0×10^−3 (test sample 4)) “Good”. Moreover, the Saltiness enhancing effect entry (40 ppm in water, salt 0.5 mass %, G/S 8.0×10^−3 (test sample 5)) was “*2”.

In the case of `O=C(O[C@@H]1Cc2c(O)cc(O)cc2O[C@@H]1c1cc(O)c(O)c(O)c1)c1cc(O)c(O)c(O)c1` [EGCg, epigallocatechin gallate, reference compound], under setting [1], the Saltiness enhancing effect entry is given as “Bad”.
